We go through 12 compounds from DBAASP.

One may read the MIC as the lowest concentration found to suppress growth. The low end stands for a more susceptible organism, the high end for a less susceptible organism.

Holding throughout (assay): ≥ marks a high value that may be exact or a test limit, other limits are often not marked, values filed in µg/mL are converted to µM
In assay [1] the test system is Candida albicans ATCC 90028.
Assay [2] concerns Escherichia coli ATCC 25922.
Assay [3] concerns Staphylococcus aureus ATCC 25923.
The subject of assay [4] is Pseudomonas aeruginosa.
Assay [5] concerns Candida albicans.
Assay [6] relates to Escherichia coli.
Assay [7] has as its system Staphylococcus aureus.
For assay [8], the system named is Pseudomonas aeruginosa ATCC 27853.
Assay [9] deals with Staphylococcus aureus ATCC 29213.
The subject of assay [10] is Escherichia coli UB1005.
Assay [11] deals with Pseudomonas aeruginosa PAO1.

≈ marks a conversion by molar mass, not a printed value. A value given as a limit tells only on which side of the number the result lay.

Turning to `CC[C@H](C)[C@H](NC(=O)[C@@H](NC(=O)[C@H](CC(N)=O)NC(=O)[C@H](CC(C)C)NC(=O)[C@H](CC(C)C)NC(=O)CN)C(C)C)C(=O)N[C@@H](CCCCN)C(=O)N[C@@H](CC(=O)O)C(=O)N[C@H](C(=O)N[C@@H](C)C(=O)N[C@@H](CCC(N)=O)C(=O)N[C@@H](CC(N)=O)C(=O)N[C@@H](CC(C)C)C(=O)N[C@@H](Cc1ccccc1)C(=O)N[C@@H](C)C(=O)N[C@@H](C)C(=O)N[C@@H](C)C(=O)N[C@@H](CC(C)C)C(=O)N[C@@H](CCC(=O)O)C(=O)N[C@@H](CCCCN)C(=O)N[C@@H](CC(C)C)C(=O)N[C@@H](CCCCN)C(=O)N[C@H]1CSSC[C@@H](C(=O)N[C@@H](CC(N)=O)C(=O)O)NC(=O)[C@H](CCCCN)NC(=O)[C@H]([C@@H](C)O)NC(=O)[C@H](C(C)C)NC(=O)[C@H](CCCCN)NC1=O)[C@@H](C)O` [GLLNVIKDTAQNLFAAALEKLKCKVTKCN], the results for the MIC in assay [1], in assay [2] and in [3] were ≥ 160 µM, 80 µM (≈ 252 µg/mL) and > 160 µM, respectively.

For `CC[C@H](C)[C@H](NC(=O)[C@H](Cc1ccccc1)NC(=O)[C@H](CO)NC(=O)[C@H](CCCCN)NC(=O)[C@H](Cc1c[nH]c2ccccc12)NC(=O)[C@@H](N)CCCCN)C(=O)N[C@@H](CCCCN)C(=O)N[C@@H](CCCCN)C(=O)N[C@@H](CCCN=C(N)N)C(=O)N[C@H](C(=O)N[C@@H](CO)C(=O)N[C@@H](CCCCN)C(=O)N[C@@H](Cc1ccccc1)C(=O)N[C@@H](CC(C)C)C(=O)N[C@@H](Cc1cnc[nH]1)C(=O)N[C@@H](CO)C(=O)N[C@@H](C)C(=O)N[C@@H](CCCCN)C(=O)N[C@@H](CCCCN)C(=O)N[C@@H](Cc1ccccc1)C(N)=O)[C@@H](C)O` [KWKSFIKKRTSKFLHSAKKF], the MIC in assay [4] was > 20 µM.

Take `CC[C@H](C)[C@H](NC(=O)[C@H](CCCCN)NC(=O)[C@H](CS)NC(=O)[C@H](C)NC(=O)[C@@H](NC(=O)[C@H](Cc1ccccc1)NC(=O)CNC(=O)[C@H](CC(C)C)NC(=O)CNC(=O)[C@@H](NC(=O)[C@H](CCCCN)NC(=O)CNC(=O)[C@H](CC(C)C)NC(=O)[C@H](CC(N)=O)NC(=O)[C@H](CCCCN)NC(=O)[C@H](CC(C)C)NC(=O)[C@@H](NC(=O)[C@H](CO)NC(=O)[C@H](CC(C)C)NC(=O)[C@H](CCSC)NC(=O)[C@@H](N)CO)C(C)C)C(C)C)C(C)C)C(=O)N[C@@H](CCCCN)C(=O)N[C@@H](CCCCN)C(=O)N[C@@H](CCC(N)=O)C(=O)N[C@@H](CS)C(=O)O` [SMLSVLKNLGKVGLGFVACKIKKQC]: the MIC turned out to be 20 µM (≈ 53.3 µg/mL) in assay [5], 10 µM (≈ 26.7 µg/mL) in assay [6] and 20 µM (≈ 53.3 µg/mL) in assay [7].

Take `CC[C@H](C)[C@H](NC(=O)CN)C(=O)NCC(=O)N[C@@H](CCCCN)C(=O)N[C@@H](Cc1ccccc1)C(=O)N[C@@H](CC(C)C)C(=O)N[C@@H](Cc1cnc[nH]1)C(=O)N[C@@H](CO)C(=O)N[C@@H](C)C(=O)N[C@@H](CCCCN)C(=O)N[C@@H](CCCCN)C(=O)N[C@@H](Cc1ccccc1)C(=O)NCC(=O)N[C@@H](CCCCN)C(=O)N[C@@H](C)C(=O)N[C@@H](Cc1c[nH]c2ccccc12)C(=O)N[C@H](C(=O)NCC(=O)N[C@@H](CCC(=O)O)C(=O)N[C@H](C(=O)N[C@@H](CCSC)C(=O)N[C@@H](CC(N)=O)C(=O)N[C@@H](CO)C(N)=O)[C@@H](C)CC)C(C)C` [GIGKFLHSAKKFGKAWVGEIMNS]: the results for the MIC in assay [6], in assay [4] and in assay [7] were 40 µM (≈ 100 µg/mL), 80 µM (≈ 200 µg/mL) and > 80 µM, respectively.

In the case of `CC[C@H](C)[C@H](NC(=O)CN)C(=O)NCC(=O)N[C@@H](CCCCN)C(=O)N[C@@H](Cc1ccccc1)C(=O)N[C@@H](CC(C)C)C(=O)N[C@@H](Cc1cnc[nH]1)C(=O)N[C@H](C(=O)N[C@@H](CC(C)C)C(=O)N[C@@H](CCCCN)C(=O)N[C@H](C(=O)N[C@@H](Cc1ccccc1)C(=O)NCC(=O)N[C@@H](CCCCN)C(=O)N[C@@H](CCCCN)C(=O)N[C@@H](Cc1c[nH]c2ccccc12)C(=O)N[C@H](C(=O)NCC(=O)N[C@@H](CCC(=O)O)C(=O)N[C@H](C(=O)N[C@@H](CCSC)C(=O)N[C@@H](CC(N)=O)C(=O)N[C@@H](CO)C(N)=O)[C@@H](C)CC)C(C)C)[C@@H](C)O)[C@@H](C)O` [GIGKFLHTLKTFGKKWVGEIMNS], the MIC in assay [6], in [4] and in assay [7] was 13 µM (≈ 33.7 µg/mL) each time.

`CC[C@H](C)[C@H](NC(=O)[C@H](CCCN=C(N)N)NC(=O)[C@H](C)NC(=O)[C@@H](NC(=O)[C@@H](NC(=O)[C@H](CCCN=C(N)N)NC(=O)[C@@H](N)CCCCN)[C@@H](C)CC)C(C)C)C(=O)N[C@@H](CCCCN)C(=O)N[C@@H](C)C(=O)N[C@@H](C)C(=O)N[C@@H](CC(C)C)C(=O)N[C@@H](CCCN=C(N)N)C(=O)O` [KRIVARIKAALR]: the MIC came out at 10 µM (≈ 13.9 µg/mL) in [1], 2.5 µM (≈ 3.49 µg/mL) in [2], 2.5 µM (≈ 3.49 µg/mL) in assay [8] and 5 µM (≈ 6.97 µg/mL) in [9].

With `CC(C)C[C@H](NC(=O)[C@H](C)NC(=O)[C@H](CCCCN)NC(=O)[C@H](Cc1c[nH]c2ccccc12)NC(=O)[C@H](CC(C)C)NC(=O)[C@H](CCCCN)NC(=O)[C@H](C)NC(=O)[C@H](CC(C)C)NC(=O)[C@H](C)NC(=O)[C@H](CCCCN)NC(=O)[C@H](C)NC(=O)[C@H](CC(C)C)NC(=O)[C@H](C)NC(=O)[C@@H](N)CCCCN)C(=O)N[C@@H](C)C(=O)N[C@@H](CCCCN)C(=O)N[C@@H](C)C(=O)N[C@@H](C)C(N)=O` [KALAKALAKLWKALAKAA], the MIC in [6] was 6 µM (≈ 11.2 µg/mL); in assay [4] it was 24 µM (≈ 44.8 µg/mL); in assay [7], 1.5 µM (≈ 2.8 µg/mL).

As for `CC(C)C[C@H](NC(=O)[C@H](C)NC(=O)[C@H](CC(C)C)NC(=O)[C@H](CCCCN)NC(=O)[C@H](CC(C)C)NC(=O)[C@H](C)NC(=O)[C@H](CC(C)C)NC(=O)[C@@H](N)CCCCN)C(=O)N[C@@H](CCCCN)C(=O)N[C@@H](C)C(=O)N[C@@H](Cc1c[nH]c2ccccc12)C(=O)N[C@@H](CCCCN)C(=O)N[C@@H](C)C(=O)N[C@@H](C)C(=O)N[C@@H](CC(C)C)C(=O)N[C@@H](CCCCN)C(=O)N[C@@H](CC(C)C)C(=O)N[C@@H](C)C(N)=O` [KLALKLALKAWKAALKLA], the MIC in [6] was found to be 3.68 µM (≈ 7.17 µg/mL); in assay [4], 14.7 µM (≈ 28.7 µg/mL); in assay [7] it was 1.84 µM (≈ 3.58 µg/mL).

On to `CC[C@H](C)[C@H](NC(=O)[C@H](Cc1cnc[nH]1)NC(=O)[C@H](CCCN=C(N)N)NC(=O)[C@@H]1CCCN1C(=O)[C@@H]1CCCN1C(=O)[C@H](CCCN=C(N)N)NC(=O)[C@@H]1CCCN1C(=O)[C@H](CCCN=C(N)N)NC(=O)[C@@H]1CCCN1C(=O)[C@H](CC(C)C)NC(=O)[C@H](Cc1ccc(O)cc1)NC(=O)[C@@H]1CCCN1C(=O)[C@@H]1CCCN1C(=O)[C@H](CCCCN)NC(=O)[C@H](CC(=O)O)NC(=O)[C@@H](N)C(C)C)C(=O)N[C@@H](Cc1ccc(O)cc1)C(=O)N[C@@H](CC(N)=O)C(=O)N[C@@H](CCCN=C(N)N)C(N)=O` [VDKPPYLPRPRPPRHIYNR], for which the MIC is 0.548 µM (≈ 1.3 µg/mL) in assay [10], 27 µM (≈ 64 µg/mL) in [11] and > 54 µM in [3].

`CC[C@H](C)[C@H](NC(=O)[C@H](CC(C)C)NC(=O)[C@@H]1CCCN1C(=O)[C@H](CC(C)C)NC(=O)[C@@H](N)Cc1ccccc1)C(=O)N[C@@H](C)C(=O)NCC(=O)N[C@H](C(=O)N[C@@H](C)C(=O)N[C@@H](C)C(=O)N[C@@H](CO)C(=O)N[C@H](C(=O)N[C@@H](CC(C)C)C(=O)N1CCC[C@H]1C(=O)N[C@@H](CCCCN)C(=O)N[C@H](C(=O)N[C@@H](Cc1ccccc1)C(=O)N[C@H]1CSSC[C@@H](C(=O)O)NC(=O)[C@H](CCCCN)NC(=O)[C@H](CCCCN)NC(=O)[C@H]([C@@H](C)O)NC(=O)[C@H]([C@@H](C)CC)NC(=O)[C@H](Cc2ccccc2)NC1=O)[C@@H](C)CC)[C@@H](C)CC)C(C)C` [FLPLIAGVAASILPKIFCFITKKC]: the MIC in assay [1] is 3 µM (≈ 7.78 µg/mL); in assay [2] it was > 100 µM; in assay [3], 3 µM (≈ 7.78 µg/mL).

Turning to `CC[C@H](C)[C@H](NC(=O)[C@H](CCCCN)NC(=O)[C@H](CC(=O)O)NC(=O)[C@H](CC(C)C)NC(=O)[C@H](CC(C)C)NC(=O)CNC(=O)[C@@H](NC(=O)[C@H](C)NC(=O)[C@H](CC(C)C)NC(=O)[C@H](CC(N)=O)NC(=O)[C@H](CCCCN)NC(=O)[C@H](C)NC(=O)[C@@H](NC(=O)[C@H](CC(N)=O)NC(=O)[C@H](CCCCN)NC(=O)[C@@H](NC(=O)[C@@H](NC(=O)[C@H](CC(=O)O)NC(=O)[C@H](CC(C)C)NC(=O)[C@H](CC(C)C)NC(=O)CN)[C@@H](C)O)[C@@H](C)CC)[C@@H](C)O)C(C)C)C(=O)N[C@@H](CCCCN)C(=O)N[C@H]1CSSC[C@@H](C(=O)O)NC(=O)CNC(=O)[C@H]([C@@H](C)O)NC(=O)[C@H](CCSC)NC(=O)[C@H](CCCCN)NC1=O` [GLLDTIKNTAKNLAVGLLDKIKCKMTGC], the MIC was ≥ 150 µM in assay [1] and 3 µM (≈ 8.88 µg/mL) in [2].

Turning to `CC[C@H](C)[C@H](N)C(=O)N[C@@H](CC(C)C)C(=O)NCC(=O)N[C@@H](C)C(=O)N[C@H](C(=O)N[C@H](C(=O)N1CCC[C@H]1C(=O)N[C@@H](CC(C)C)C(=O)N[C@H](C(=O)N[C@@H](CO)C(=O)NCC(=O)N[C@@H](CC(C)C)C(=O)N[C@@H](CC(C)C)C(=O)N[C@@H](CO)C(=O)N[C@@H](Cc1cnc[nH]1)C(=O)N[C@@H](CC(C)C)C(N)=O)C(C)C)[C@@H](C)CC)[C@@H](C)CC` [ILGAIIPLVSGLLSHL], the MIC in assay [5] is 310 µM (≈ 501 µg/mL); in [6], > 400 µM; in assay [7], 19.3 µM (≈ 31.2 µg/mL).
